Reference: US20210393742A1, “LONG-ACTING INTERLEUKIN-15 RECEPTOR AGONIST IN COMBINATION WITH ANOTHER PHARMACOLOGICALLY ACTIVE AGENT” (Nektar Therapeutics, priority 2018, published 2021)

Legend:
human PBMCs = assay: Secreted granzyme B in PBMC culture media by ELISA (Example 6); type: cell-based; details: overnight, Conjugate 1 1 μg/ml, plate coated with hIgG 0.1 mg/ml
Description: (§1) Functional activation of human NK cells within a human peripheral blood mononuclear cells (PBMCs) preparation was induced in vitro. PBMCs from two donors were incubated overnight in the presence of (i) mono(methoxyPEG-N-butanamide)40 kD interleukin-15 (Conjugate 1) at a concentration of 1 μg/ml; (ii) on cell culture plastic that had been prior coated overnight with human total immunoglobulin G (hIgG) solution at a concentration of 0.1 mg/ml (iii) on cell culture plastic that had been prior coated overnight with human total immunoglobulin G (hIgG) solution at a concentration of 0.1 mg/ml and in the presence of Conjugate 1 at a concentration of 1 μg/ml; or (iv) on regular cell culture plastic.
(§2) After the incubation period, NK cell activation was measured with flow cytometry by measuring the increase of median fluorescence intensity (MFI) signal of CD69 (FIG. 9A) and CD107a (FIG. 9B) detecting antibodies on the surface of CD56+ human NK cells within the PBMCs. Functional activation of NK cells was assessed by calculating the fold-change in MFI when comparing control condition where the cells were exposed to neither hIgG nor Conjugate 1. […] Secreted granzyme B concentration also indicative of NK cell activation in the culture media at the end of the experiment was measured by ELISA (FIG. 9C).

CD56+ human NK cells [1] = assay: Human NK cell proliferation in CFSE labeled PBMCs (Example 5); type: cell-based; details: 5 days; Conjugate 1 100 ng/ml; plate coated with hIgG 0.1 mg/ml
Description: NK cell proliferation within a human peripheral blood mononuclear cell (PBMCs) labeled with CFSE preparation was induced in vitro. The CFSE labeled PBMCs were incubated for 5 days in vitro in the presence of (i) mono(methoxyPEG-N-butanamide)40 kD interleukin-15 (Conjugate 1) at a concentration of 100 ng/ml; (ii) on cell culture plastic that had been prior coated overnight with human total immunoglobulin G (hIgG) solution at a concentration of 0.1 mg/ml (iii) on cell culture plastic that had been prior coated overnight with human total immunoglobulin G (hIgG) solution at a concentration of 0.1 mg/ml and in the presence of Conjugate 1 at a concentration of 100 ng/ml; or (iv) on regular cell culture plastic. After the incubation period, cell proliferation as indicated by the decrease of CFSE in the cells that had undergone cell doublings was measured with flow cytometry (FIGS. 8A-8D) measuring CFSE levels in CD56+ human NK cells within the PBMCs preparation in each of the four incubation conditions.

Daudi B cell lymphoma [2] = assay: NK cell counts, Daudi cell counts and granzyme B in bone marrow, Daudi xenograft model, combination with daratumumab (Example 2); type: in vivo, mice
Description: SCID mice (N=6/group) were intravenously inoculated with 1×10^7 Daudi cells on Day 0 and treated with a single dose of the anti-human CD38 antibody, daratumumab (0.5 mg/kg IP, 14 days following Daudi cell inoculation) and two doses of mono(methoxyPEG-N-butanamide)interleukin-15 (0.3 mg/kg SC, one dose at each of 14 and 21 days after inoculation). Mice were also treated with the single agent therapies: daratumumab (0.5 mg/kg IP, 14 days following Daudi cell inoculation) or two doses of mono(methoxyPEG-N-butanamide)40 kD interleukin-15 (0.3 mg/kg SC, 14 and 21 days after inoculation).
(One-way ANOVA, Tukey's multiple comparison test).

CD56+ human NK cells [3] = assay: Functional activation of human NK cells in PBMCs, CD69 and CD107a MFI by flow cytometry (Example 6); type: cell-based; details: overnight; Conjugate 1 1 μg/ml; plate coated with hIgG 0.1 mg/ml
Description: as §1, §2

Daudi B cell lymphoma [4] = assay: Daudi cell counts in bone marrow, low and high doses (Example 14); type: in vivo, mice; details: day 24, single agent
Description: SCID mice (N=6/group) were intravenously inoculated with 10 million Daudi cells on Day 0 and treated with a single dose of a lower or higher dose of daratumumab (0.05 mg/kg or 5 mg/kg IP, 14 days following Daudi cell inoculation) and two doses of either lower or higher dose mono(methoxyPEG-N-butanamide)interleukin-15 (compound 1) (0.03 mg/kg or 0.6 mg/kg intravenously, one dose at each of 14 and 21 days after inoculation). Mice were also treated with the single agent therapies: daratumumab (0.05 mg/kg or 5 mg/kg IP, 14 days following Daudi cell inoculation) or two doses of mono(methoxyPEG-N-butanamide)40 kD interleukin-15 (compound 1) (0.03 mg/kg or 0.6 mg/kg intravenously, 14 and 21 days after inoculation). Daudi cell numbers in the bone marrow were assessed three days following the second dose of mono(methoxyPEG-N-butanamide)40 kD interleukin-15 (day 24) by flow cytometry as shown in FIGS. 17A and 17B.

NK cells = assay: Granzyme B expression per cell in bone marrow NK cells of Daudi lymphoma bearing mice (Example 11); type: in vivo; details: bone marrow day 24; Conjugate 1 0.3 mg/kg; antibody 0.5 mg/kg
Description: Balb/c mice bearing Daudi B cell lymphoma tumors in the bone marrow (n=6/group) were intraperitoneally administered a single 0.5 mg/kg dose of the human CD38 protein targeting clinical antibody daratumumab (DARZALEX®), Janssen Biotech) or a nonspecific control antibody with a matching isotype on day 14 after Daudi cell intravenous inoculation. Additional groups were treated with (i) mono(mPEG-N-butanamide)40 kD interleukin-15 (Conjugate 1) administered subcutaneously at a dose of 0.3 mg/kg as a single agent on days 14 and 21 after Daudi cell inoculation, or (ii) a combination treatment of Conjugate 1 administered subcutaneously at doses of 0.03 mg/kg or 0.3 mg/kg on days 14 and 21 after Daudi cell inoculation and daratumumab administered intraperitoneally at a dose of 0.5 mg/kg on day 14 after Daudi cell inoculation.
Three days following the second Conjugate 1 administration (day 24 after Daudi inoculation), bone marrow was collected and the NK cell fraction was measured by flow cytometry in total bone marrow.

CD56+ human NK cells [5] = assay: Dose response of human NK cell proliferation in CFSE labeled PBMCs (Example 8); type: cell-based; details: 5 days
Description: Human peripheral blood mononuclear cell (PBMCs) labeled with a CFSE preparation were incubated for 5 days in vitro in the presence of increasing doses of rhIL-15 (dose range 1 ng/ml-100 ng/ml, 5 point, 3 fold dilutions) or a long-acting IL-15 receptor agonist (mono(mPEG-butanamide)IL-15) (dose range 10 ng/ml-1000 ng/ml, 5 point, 3 fold dilutions). After the incubation period, cell proliferation as indicated by the decrease of CFSE in the cells that had undergone cell doublings was measured with flow cytometry measuring CFSE levels in CD56+ human NK cells within the PBMCs preparation.

“mono(methoxyPEG-N-butanamide)40 kD interleukin-15 [Conjugate 1]” was tested, and the “Granzyme B concentration” value (human PBMCs) was 56 pg/mL, the “Granzyme B concentration fold-change relative to no stimulation control” value (human PBMCs) was 4.1 fold and the “% CD56+ NK cells proliferating” value (CD56+ human NK cells [1]) was 49.7%. For the same substance, the “granzyme B expression in bone marrow NK cells” value (Daudi B cell lymphoma [2]; alone or in combination with daratumumab) was “increase granzyme B expression”, the “increase in NK cell count in bone marrow” value (Daudi B cell lymphoma [2]; day 24, agonist 0.3 mg/kg SC days 14 and 21, daratumumab 0.5 mg/kg IP day 14) was 10 fold and the “CD69 MFI fold-change relative to no stimulation control” value (CD56+ human NK cells [3]) was 1.8 fold. The “CD107a MFI fold-change relative to no stimulation control” value (CD56+ human NK cells [3]) was 2.6 fold, the “intra-bone marrow tumor cells depleted” value (Daudi B cell lymphoma [4]; high dose (daratumumab 5 mg/kg; compound 1 0.6 mg/kg)) was 69% and the “intra-bone marrow tumor cells depleted” value (Daudi B cell lymphoma [4]; low dose (daratumumab 0.05 mg/kg; compound 1 0.03 mg/kg)) was 42%. For the same substance, the “Granzyme B mean fluorescence intensity (MFI mean value)” value (NK cells) was 2649, the “Relative Granzyme B expression compared to untreated condition” value (NK cells) was 6.7x increase and the “EC50 (ng/ml)-% proliferation” value (CD56+ human NK cells [5]) was 39.04 ng/mL. The Emax-% proliferation (CD56+ human NK cells [5]) was 71.6% and the “potency in inducing human NK cell proliferation, fold less than rhIL-15” value (CD56+ human NK cells [5]) was “approximately 17 fold”.
